In patent publication US10329302B2, “Bicyclic-fused heteroaryl or aryl compounds” (Pfizer Inc., priority 2014, dated 2019):

target: human IRAK4 kinase domain (aa 154-460) (Homo sapiens (Human), UniProt Q9NWZ3); experiment: IRAK4 Enzymatic DELFIA Assay, Protocol B; assay type: biochemical; conditions: human IRAK4 kinase domain (aa 154-460), 0.6 mM ATP (KM); read-out: IRAK4 DELFIA Protocol B IC50
Excerpt: IRAK4 Enzymatic DELFIA Assay, Protocol B.

human IRAK4 kinase domain (aa 154-460), sequence (Q9NWZ3 154-460): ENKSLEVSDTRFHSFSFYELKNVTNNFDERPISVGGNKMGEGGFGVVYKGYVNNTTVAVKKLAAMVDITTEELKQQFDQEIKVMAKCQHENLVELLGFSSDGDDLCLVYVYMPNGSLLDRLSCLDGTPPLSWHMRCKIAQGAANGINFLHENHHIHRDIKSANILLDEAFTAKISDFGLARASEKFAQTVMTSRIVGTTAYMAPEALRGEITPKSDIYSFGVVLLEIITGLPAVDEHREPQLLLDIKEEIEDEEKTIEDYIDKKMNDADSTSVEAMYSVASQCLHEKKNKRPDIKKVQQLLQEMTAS

Which IC50 does the source give for `CC(C)Oc1cc2c(OC[C@H]3CCN(C(=O)CC#N)C3)ccnc2cc1C(N)=O` [Example 22, 4-{[(3S)-1-(cyanoacetyl)pyrrolidin-3-yl]methoxy}-6-(propan-2-yloxy)quinoline-7-carboxamide] here?
The IC50 was 45 nM.

Which IC50 does the source give for `CC(C)Oc1cc2c(OCC3CCOC3)nccc2cc1C(N)=O` (stereo not drawn) [Example 24, 7-(propan-2-yloxy)-1-(tetrahydrofuran-3-ylmethoxy)isoquinoline-6-carboxamide] here?
Its IC50 is 492 nM.

`CC(C)Oc1cc2c(OCC3CCCCO3)nccc2cc1C(N)=O` (stereo not drawn) [Example 25, 7-(propan-2-yloxy)-1-(tetrahydro-2H-pyran-2-ylmethoxy)isoquinoline-6-carboxamide] was tested. Which IC50 did it give?
Its IC50 is 1130 nM.

How did the IC50 turn out when `CC(C)Oc1cc2c(OCC3CCCS(=O)(=O)N3)nccc2cc1C(N)=O` (stereo not drawn) [Example 27, 1-[(1,1-dioxido-1,2-thiazinan-3-yl)methoxy]-7-(propan-2-yloxy)isoquinoline-6-carboxamide] was run?
The IC50 was 2480 nM.

For `CC(C)Oc1cc2c(OC[C@H]3CCCNC3)nccc2cc1C(N)=O` [Example 28, 1-[(3S)-piperidin-3-ylmethoxy]-7-(propan-2-yloxy)isoquinoline-6-carboxamide], which IC50 is on record?
Its IC50 is 1320 nM.

With `CC(C)Oc1cc2c(OCC3COC(=O)N3C)nccc2cc1C(N)=O` (stereo not drawn) [Example 29, 1-[(3-methyl-2-oxo-1,3-oxazolidin-4-yl)methoxy]-7-(propan-2-yloxy)isoquinoline-6-carboxamide] as the compound, how does the IC50 read?
Its IC50 is 76 nM.

For `CC(C)Oc1cc2c(OC[C@H]3CCCO3)nccc2cc1C(N)=O` [Example 30, 7-(propan-2-yloxy)-1-[(2R)-tetrahydrofuran-2-ylmethoxy]isoquinoline-6-carboxamide], which IC50 is on record?
Its IC50 is 2440 nM.

For `CC(C)Oc1cc2c(OC[C@@H]3CCCN3C)nccc2cc1C(N)=O` [Example 31, 1-{[(2S)-1-methylpyrrolidin-2-yl]methoxy}-7-(propan-2-yloxy)isoquinoline-6-carboxamide], which IC50 is on record?
The IC50 was 2620 nM.

How did the IC50 turn out when `CC(=O)N1CCC(COc2nccc3cc(C(N)=O)c(OC(C)C)cc23)CC1` [Example 33, 1-[(1-acetylpiperidin-4-yl)methoxy]-7-(propan-2-yloxy)isoquinoline-6-carboxamide] was run?
The IC50 was 2860 nM.

`CO[C@H]1CNC[C@@H]1COc1nccc2cc(C(N)=O)c(OC(C)C)cc12` [Example 34, 1-{[(3R,4R)-4-methoxypyrrolidin-3-yl]methoxy}-7-(propan-2-yloxy)isoquinoline-6-carboxamide] was tested. Which IC50 did it give?
Its IC50 is 483 nM.

With `CC(C)Oc1cc2c(OCC3CNC(=O)O3)nccc2cc1C(N)=O` (stereo not drawn) [Example 35, 1-[(2-oxo-1,3-oxazolidin-5-yl)methoxy]-7-(propan-2-yloxy)isoquinoline-6-carboxamide] as the compound, how does the IC50 read?
The IC50 was 16 nM.

For `CC(C)Oc1cc2c(OCC3CCOCC3)nccc2cc1C(N)=O` [Example 36, 7-(propan-2-yloxy)-1-(tetrahydro-2H-pyran-4-ylmethoxy)isoquinoline-6-carboxamide], which IC50 is on record?
The IC50 was 735 nM.

How did the IC50 turn out when `CC(C)Oc1cc2c(OC[C@@H]3CNCCO3)nccc2cc1C(N)=O` [Example 37, 1-[(2S)-morpholin-2-ylmethoxy]-7-(propan-2-yloxy)isoquinoline-6-carboxamide] was run?
Its IC50 is 3520 nM.

How did the IC50 turn out when `CC(C)Oc1cc2c(OCC3(F)CCNCC3)nccc2cc1C(N)=O` [Example 38, 1-[(4-fluoropiperidin-4-yl)methoxy]-7-(propan-2-yloxy)isoquinoline-6-carboxamide] was run?
Its IC50 is 4640 nM.

With `CC(C)Oc1cc2c(OCC3CNCCO3)nccc2cc1C(N)=O` (stereo not drawn) [Example 39, 1-(morpholin-2-ylmethoxy)-7-(propan-2-yloxy)isoquinoline-6-carboxamide] as the compound, how does the IC50 read?
The IC50 was 386 nM.

With `CC(C)Oc1cc2c(OC[C@]34CNC[C@H]3C4)nccc2cc1C(N)=O` [Example 40, 1-[(1S,5S)-3-azabicyclo[3.1.0]hex-1-ylmethoxy]-7-(propan-2-yloxy)isoquinoline-6-carboxamide] as the compound, how does the IC50 read?
Its IC50 is 109 nM.

`CC(C)Oc1cc2c(OC[C@H]3CCCN3)nccc2cc1C(N)=O` [Example 41, 7-(propan-2-yloxy)-1-[(2R)-pyrrolidin-2-ylmethoxy]isoquinoline-6-carboxamide] was tested. Which IC50 did it give?
The IC50 was 2350 nM.

How did the IC50 turn out when `CC(C)Oc1cc2c(OC[C@H]3[C@@H]4CNC[C@@H]43)nccc2cc1C(N)=O` [Example 42, 1-[(1R,5S,6r)-3-azabicyclo[3.1.0]hex-6-ylmethoxy]-7-(propan-2-yloxy)isoquinoline-6-carboxamide] was run?
The IC50 was 219 nM.

`CC(C)Oc1cc2c(OCC3CCCCN3)nccc2cc1C(N)=O` (stereo not drawn) [Example 43, 1-(piperidin-2-ylmethoxy)-7-(propan-2-yloxy)isoquinoline-6-carboxamide] was tested. Which IC50 did it give?
Its IC50 is 3320 nM.

How did the IC50 turn out when `CC(C)Oc1cc2c(OCC3CN(C)CCO3)nccc2cc1C(N)=O` (stereo not drawn) [Example 44, 1-[(4-methylmorpholin-2-yl)methoxy]-7-(propan-2-yloxy)isoquinoline-6-carboxamide] was run?
Its IC50 is 4260 nM.

`CC(C)Oc1cc2c(OCC3CCCN(C)C3)nccc2cc1C(N)=O` (stereo not drawn) [Example 45, 1-[(1-methylpiperidin-3-yl)methoxy]-7-(propan-2-yloxy)isoquinoline-6-carboxamide] was tested. Which IC50 did it give?
Its IC50 is 1920 nM.

With `CC(C)Oc1cc2c(OC[C@H]3CNC[C@@H]3C(F)(F)F)nccc2cc1C(N)=O` [Example 46, 7-(propan-2-yloxy)-1-{[(3R,4R)-4-(trifluoromethyl)pyrrolidin-3-yl]methoxy}isoquinoline-6-carboxamide] as the compound, how does the IC50 read?
The IC50 was 237 nM.

With `CC(C)Oc1cc2c(OC[C@H]3CNCCO3)nccc2cc1C(N)=O` [Example 47, 1-[(2R)-morpholin-2-ylmethoxy]-7-(propan-2-yloxy)isoquinoline-6-carboxamide] as the compound, how does the IC50 read?
Its IC50 is 2790 nM.

How did the IC50 turn out when `CC(C)Oc1cc2c(OC[C@@H]3CCCNC3)nccc2cc1C(N)=O` [Example 48, 1-[(3R)-piperidin-3-ylmethoxy]-7-(propan-2-yloxy)isoquinoline-6-carboxamide] was run?
The IC50 was 366 nM.

`CC(C)Oc1cc2c(OC[C@H]3CCNC3)nccc2cc1C(N)=O` [Example 49, 7-(propan-2-yloxy)-1-[(3S)-pyrrolidin-3-ylmethoxy]isoquinoline-6-carboxamide] was tested. Which IC50 did it give?
The IC50 was 451 nM.

For `CC(C)Oc1cc2c(OC[C@H]3CCNC3)ccnc2cc1C(N)=O` [Example 50, 6-(propan-2-yloxy)-4-[(3S)-pyrrolidin-3-ylmethoxy]quinoline-7-carboxamide], which IC50 is on record?
The IC50 was 701 nM.

For `CC(C)Oc1cc2c(OC[C@@H]3CNCCO3)ccnc2cc1C(N)=O` [Example 51, 4-[(2S)-morpholin-2-ylmethoxy]-6-(propan-2-yloxy)quinoline-7-carboxamide], which IC50 is on record?
Its IC50 is 2410 nM.

Which IC50 does the source give for `CC(C)Oc1cc2c(OC3CCC34CCNCC4)ccnc2cc1C(N)=O` (stereo not drawn) [Example 52, 4-(7-azaspiro[3.5]non-1-yloxy)-6-(propan-2-yloxy)quinoline-7-carboxamide] here?
The IC50 was 4240 nM.

For `CC(C)Oc1cc2c(OC[C@H]3CNCCO3)ccnc2cc1C(N)=O` [Example 53, 4-[(2R)-morpholin-2-ylmethoxy]-6-(propan-2-yloxy)quinoline-7-carboxamide], which IC50 is on record?
The IC50 was 2380 nM.

How did the IC50 turn out when `CC(C)Oc1cc2c(OCC3(F)CCNCC3)ccnc2cc1C(N)=O` [Example 54, 4-[(4-fluoropiperidin-4-yl)methoxy]-6-(propan-2-yloxy)quinoline-7-carboxamide] was run?
The IC50 was 2440 nM.

How did the IC50 turn out when `CC(C)Oc1cc2c(OC[C@@]3(C)CNC[C@@H]3C)ccnc2cc1C(N)=O` [Example 55, 4-{[(3R,4R)-3,4-dimethylpyrrolidin-3-yl]methoxy}-6-(propan-2-yloxy)quinoline-7-carboxamide] was run?
The IC50 was 264 nM.

Which IC50 does the source give for `CC(C)Oc1cc2c(OCC3(C)CCNCC3)ccnc2cc1C(N)=O` [Example 56, 4-[(4-methylpiperidin-4-yl)methoxy]-6-(propan-2-yloxy)quinoline-7-carboxamide] here?
Its IC50 is 1490 nM.

Which IC50 does the source give for `CC(C)Oc1cc2c(OC[C@H]3CNC(=O)O3)ccnc2cc1C(N)=O` [Example 57, 4-{[(5R)-2-oxo-1,3-oxazolidin-5-yl]methoxy}-6-(propan-2-yloxy)quinoline-7-carboxamide] here?
Its IC50 is 5.8 nM.

For `CC(C)Oc1cc2c(OCC3(C)CCCNC3)ccnc2cc1C(N)=O` (stereo not drawn) [Example 58, 4-[(3-methylpiperidin-3-yl)methoxy]-6-(propan-2-yloxy)quinoline-7-carboxamide], which IC50 is on record?
The IC50 was 144 nM.

Which IC50 does the source give for `CC(C)Oc1cc2c(OCC3CCCNC3)ccnc2cc1C(N)=O` (stereo not drawn) [Example 59, 4-(piperidin-3-ylmethoxy)-6-(propan-2-yloxy)quinoline-7-carboxamide] here?
Its IC50 is 243 nM.

With `CC(C)Oc1cc2c(OC[C@H]3CCCN3C(=O)CC#N)nccc2cc1C(N)=O` [Example 61, 1-{[(2R)-1-(cyanoacetyl)pyrrolidin-2-yl]methoxy}-7-(propan-2-yloxy)isoquinoline-6-carboxamide] as the compound, how does the IC50 read?
The IC50 was 249 nM.

`CC(C)Oc1cc2c(OCC3CCN(C(=O)CC#N)CC3)nccc2cc1C(N)=O` [Example 62, 1-{[1-(cyanoacetyl)piperidin-4-yl]methoxy}-7-(propan-2-yloxy)isoquinoline-6-carboxamide] was tested. Which IC50 did it give?
Its IC50 is 1290 nM.

With `CC(C)Oc1cc2c(OC[C@@H]3CCCN3C(=O)CC#N)nccc2cc1C(N)=O` [Example 63, 1-{[(2S)-1-(cyanoacetyl)pyrrolidin-2-yl]methoxy}-7-(propan-2-yloxy)isoquinoline-6-carboxamide] as the compound, how does the IC50 read?
Its IC50 is 252 nM.

Which IC50 does the source give for `CC(C)Oc1cc2c(OC[C@H]3COCCN3C(=O)CC#N)nccc2cc1C(N)=O` [Example 64, 1-{[(3R)-4-(cyanoacetyl)morpholin-3-yl]methoxy}-7-(propan-2-yloxy)isoquinoline-6-carboxamide] here?
Its IC50 is 641 nM.

How did the IC50 turn out when `CC(C)Oc1cc2c(OCC3(NC(=O)CC#N)CCCC3)nccc2cc1C(N)=O` [Example 65, 1-({1-[(cyanoacetyl)amino]cyclopentyl}methoxy)-7-(propan-2-yloxy)isoquinoline-6-carboxamide] was run?
The IC50 was 563 nM.

For `CC(C)Oc1cc2c(OC[C@H]3CCN(C(=O)CC#N)C3)nccc2cc1C(N)=O` [Example 66, 1-{[(3S)-1-(cyanoacetyl)pyrrolidin-3-yl]methoxy}-7-(propan-2-yloxy)isoquinoline-6-carboxamide], which IC50 is on record?
The IC50 was 255 nM.

`CC(C)Oc1cc2c(OC[C@@H]3CCCN(C(=O)CC#N)C3)nccc2cc1C(N)=O` [Example 67, 1-{[(3R)-1-(cyanoacetyl)piperidin-3-yl]methoxy}-7-(propan-2-yloxy)isoquinoline-6-carboxamide] was tested. Which IC50 did it give?
The IC50 was 1730 nM.
